Assays:
[1] = molecular target: Programmed cell death protein 1/Programmed cell death 1 ligand 1 (Homo sapiens, UniProt Q9NZQ7); test: Inhibition of PD-1/PD-L1 (unknown origin) protein-protein interaction by HTRF assay; assay type: protein-complex assay
[2] = molecular target: T1, Protein deacetylase HDAC6 (Homo sapiens) (UniProt Q9UBN7); conditions: Sf9, dose 100.0 nM, time 30.0 min
T1 sequence (whole entry): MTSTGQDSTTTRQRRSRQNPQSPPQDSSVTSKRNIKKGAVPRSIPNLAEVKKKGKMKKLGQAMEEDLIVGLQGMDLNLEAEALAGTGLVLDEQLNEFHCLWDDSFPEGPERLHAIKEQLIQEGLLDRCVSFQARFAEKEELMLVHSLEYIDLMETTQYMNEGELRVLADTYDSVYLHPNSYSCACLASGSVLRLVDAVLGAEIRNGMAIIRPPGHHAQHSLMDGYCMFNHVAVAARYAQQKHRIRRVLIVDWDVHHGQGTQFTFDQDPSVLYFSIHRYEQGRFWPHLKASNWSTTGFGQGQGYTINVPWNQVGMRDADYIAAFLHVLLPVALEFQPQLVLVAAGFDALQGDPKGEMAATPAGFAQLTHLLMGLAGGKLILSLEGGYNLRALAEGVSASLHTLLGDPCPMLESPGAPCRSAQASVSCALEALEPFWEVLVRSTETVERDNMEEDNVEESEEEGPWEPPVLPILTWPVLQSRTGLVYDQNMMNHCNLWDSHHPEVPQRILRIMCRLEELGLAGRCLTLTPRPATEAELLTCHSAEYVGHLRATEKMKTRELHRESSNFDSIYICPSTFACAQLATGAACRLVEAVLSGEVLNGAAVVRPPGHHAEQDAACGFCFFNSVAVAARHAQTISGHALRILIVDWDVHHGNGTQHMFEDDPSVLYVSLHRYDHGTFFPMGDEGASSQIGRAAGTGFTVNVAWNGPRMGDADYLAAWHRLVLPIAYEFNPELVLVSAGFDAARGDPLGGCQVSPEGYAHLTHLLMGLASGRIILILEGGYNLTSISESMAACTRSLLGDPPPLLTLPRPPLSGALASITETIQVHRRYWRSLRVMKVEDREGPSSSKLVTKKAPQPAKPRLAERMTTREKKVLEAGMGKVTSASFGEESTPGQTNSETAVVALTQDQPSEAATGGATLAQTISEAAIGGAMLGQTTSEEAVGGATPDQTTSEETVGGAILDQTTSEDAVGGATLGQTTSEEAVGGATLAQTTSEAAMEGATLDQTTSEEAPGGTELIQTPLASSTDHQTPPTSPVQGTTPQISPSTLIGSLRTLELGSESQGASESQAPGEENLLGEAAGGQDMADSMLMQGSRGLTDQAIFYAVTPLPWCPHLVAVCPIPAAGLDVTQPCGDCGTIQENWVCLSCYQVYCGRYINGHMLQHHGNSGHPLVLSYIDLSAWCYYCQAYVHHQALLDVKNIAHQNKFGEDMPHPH

Histone deacetylase 8 = molecular target: T2, Histone deacetylase 8 (Homo sapiens, UniProt Q9BY41); test: Inhibition of C-terminal His-tagged recombinant full length human HDAC8 extracted from baculovirus infected Sf9 insect cells preincubated for 5 mins followed by substrate addition and measured after 30 mins by fluorescence microplate reader analysis
T2 sequence (Q9BY41 whole entry): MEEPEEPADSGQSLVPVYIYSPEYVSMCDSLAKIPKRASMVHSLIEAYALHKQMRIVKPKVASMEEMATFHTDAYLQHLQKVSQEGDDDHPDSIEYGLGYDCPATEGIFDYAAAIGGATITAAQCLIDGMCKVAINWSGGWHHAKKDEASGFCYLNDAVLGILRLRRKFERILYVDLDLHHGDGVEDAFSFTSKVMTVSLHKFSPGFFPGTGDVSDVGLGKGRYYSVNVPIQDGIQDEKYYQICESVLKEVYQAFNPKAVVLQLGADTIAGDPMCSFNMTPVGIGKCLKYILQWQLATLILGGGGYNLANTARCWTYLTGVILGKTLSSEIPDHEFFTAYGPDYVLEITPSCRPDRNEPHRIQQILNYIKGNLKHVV

Jurkat = test: cells; conditions: Homo sapiens, 72 h
Histone deacetylase 7 = molecular target: T3, Histone deacetylase 7 (Homo sapiens, UniProt Q8WUI4); test: Inhibition of N-terminal GST-tagged recombinant human HDAC7 (501 to 952 residues) extracted from baculovirus expression system using Ac-Leu-Gly-Lys (Tfa)-AMC as substrate preincubated for 5 mins followed by substrate addition and measured after 30 mins by fluorescence microplate reader analysis
T3 sequence (Q8WUI4 whole entry): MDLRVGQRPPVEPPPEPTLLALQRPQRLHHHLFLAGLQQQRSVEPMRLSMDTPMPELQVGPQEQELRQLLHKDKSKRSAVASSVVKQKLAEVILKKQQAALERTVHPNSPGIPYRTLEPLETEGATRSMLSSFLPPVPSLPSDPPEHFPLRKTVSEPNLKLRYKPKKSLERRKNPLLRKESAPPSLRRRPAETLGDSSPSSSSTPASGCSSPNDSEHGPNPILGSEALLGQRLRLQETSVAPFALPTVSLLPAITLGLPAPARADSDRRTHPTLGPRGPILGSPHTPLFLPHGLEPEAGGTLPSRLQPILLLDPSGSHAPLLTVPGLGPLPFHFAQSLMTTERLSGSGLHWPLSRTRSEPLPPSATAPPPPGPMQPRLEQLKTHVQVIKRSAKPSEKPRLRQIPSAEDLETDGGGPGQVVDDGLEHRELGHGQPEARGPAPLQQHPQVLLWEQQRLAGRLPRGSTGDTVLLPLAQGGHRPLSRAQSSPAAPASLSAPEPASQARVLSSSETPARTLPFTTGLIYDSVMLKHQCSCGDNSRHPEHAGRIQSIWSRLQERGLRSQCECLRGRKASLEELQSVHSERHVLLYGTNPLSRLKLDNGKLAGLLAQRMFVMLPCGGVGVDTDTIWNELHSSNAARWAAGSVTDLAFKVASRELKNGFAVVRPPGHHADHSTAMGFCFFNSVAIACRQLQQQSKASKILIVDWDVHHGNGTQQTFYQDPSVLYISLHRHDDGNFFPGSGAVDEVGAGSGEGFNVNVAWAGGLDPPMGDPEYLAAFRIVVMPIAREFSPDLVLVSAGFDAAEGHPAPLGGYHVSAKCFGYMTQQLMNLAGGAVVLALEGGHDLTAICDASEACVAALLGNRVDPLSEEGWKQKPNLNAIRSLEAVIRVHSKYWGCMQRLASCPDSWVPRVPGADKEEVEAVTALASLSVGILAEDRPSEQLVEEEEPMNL

B16-F10 = test: cells; conditions: Mus musculus, B16-F10, 48 h
HepG2 = test: cells; conditions: Homo sapiens, HepG2, 48 h
MCF7 = test: cells; conditions: Homo sapiens, MCF7, 48 h

Chain of Programmed cell death protein 1/Programmed cell death 1 ligand 1 (Q15116 whole entry): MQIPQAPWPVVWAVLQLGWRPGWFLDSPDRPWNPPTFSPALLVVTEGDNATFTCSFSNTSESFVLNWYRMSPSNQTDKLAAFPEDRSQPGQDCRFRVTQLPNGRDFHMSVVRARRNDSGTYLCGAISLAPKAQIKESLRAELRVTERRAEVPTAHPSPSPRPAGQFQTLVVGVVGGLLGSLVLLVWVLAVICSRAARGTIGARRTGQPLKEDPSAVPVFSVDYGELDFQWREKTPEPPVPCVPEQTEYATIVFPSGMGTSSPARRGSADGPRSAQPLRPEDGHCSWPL
Chain of Programmed cell death protein 1/Programmed cell death 1 ligand 1 (Q9NZQ7 whole entry): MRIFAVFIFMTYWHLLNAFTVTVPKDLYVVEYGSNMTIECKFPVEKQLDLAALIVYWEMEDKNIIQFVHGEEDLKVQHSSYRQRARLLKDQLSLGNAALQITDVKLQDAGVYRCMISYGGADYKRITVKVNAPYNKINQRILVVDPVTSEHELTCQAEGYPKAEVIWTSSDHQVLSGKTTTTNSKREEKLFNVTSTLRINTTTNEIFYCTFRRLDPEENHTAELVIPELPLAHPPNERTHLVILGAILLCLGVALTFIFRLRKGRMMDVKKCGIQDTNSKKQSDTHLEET

Structure (SMILES)	IC50 [1]	inhibition [2]	other results
COc1nc(-c2cccc(-c3ccccc3)c2C)ccc1CNC1(C(=O)Nc2ccccc2N)CCCC1	> 1000 nM	< 13.5%	–
COc1nc(OCc2cccc(-c3ccccc3)c2C)ccc1CNC1CCC(C(=O)Nc2ccccc2N)CC1 (stereo not drawn)	> 1000 nM	< 10%	–
COc1nc(OCc2cccc(-c3ccccc3)c2C)ccc1CNCCCCCCC(=O)NO	59.2 nM	–	IC50 (Histone deacetylase 8): > 10000 nM; IC50 (Jurkat): > 10000 nM; IC50 (Histone deacetylase 7): > 100000 nM; IC50 (B16-F10): > 10000 nM; IC50 (HepG2): > 10000 nM; IC50 (MCF7): > 10000 nM
COc1nc(OCc2cccc(-c3ccccc3)c2C)ccc1CNCC(=O)NO	93.5 nM	< 10%	–
CCCC[C@@H](NCc1ccc(OCc2cccc(-c3ccccc3)c2C)nc1OC)C(=O)Nc1ccccc1N	100 nM	< 10%	–
CC[C@@H](NCc1ccc(OCc2cccc(-c3ccccc3)c2C)nc1OC)C(=O)Nc1ccccc1N	100 nM	< 10%	–
COc1nc(-c2cccc(-c3ccccc3)c2C)ccc1CNc1ccc(CC(=O)NO)cc1	64.3 nM	–	–
COc1nc(OCc2cccc(-c3ccccc3)c2C)ccc1CNC(C)(C)CC(=O)Nc1ccccc1N	90.6 nM	< 10%	–
CCCC[C@@H](NCc1ccc(-c2cccc(-c3ccccc3)c2C)nc1OC)C(=O)Nc1ccccc1N	> 1000 nM	< 13.5%	–
COc1nc(OCc2cccc(-c3ccccc3)c2C)ccc1CNc1ccc(CC(=O)NO)cc1	100 nM	–	–
COc1nc(-c2cccc(-c3ccccc3)c2C)ccc1CN1CCC(C(=O)Nc2ccccc2N)C1 (stereo not drawn)	99 nM	–	–
COc1nc(-c2cccc(-c3ccccc3)c2C)ccc1CN1CCN(C(=O)NO)CC1	100 nM	< 10%	–
COc1nc(OCc2cccc(-c3ccccc3)c2C)ccc1CN1CCC(C(=O)Nc2ccccc2N)C1 (stereo not drawn)	72.2 nM	–	–
CC[C@@H](NCc1ccc(-c2cccc(-c3ccccc3)c2C)nc1OC)C(=O)Nc1ccccc1N	> 1000 nM	< 13.5%	–
COc1nc(-c2cccc(-c3ccccc3)c2C)ccc1CNc1cc(C(=O)NO)c[nH]1	100 nM	< 10%	–
COc1nc(-c2cccc(-c3ccccc3)c2C)ccc1CNc1ccc(CC(=O)Nc2ccccc2N)cc1	100 nM	< 10%	–
COc1nc(OCc2cccc(-c3ccccc3)c2C)ccc1CNc1ccc(C(=O)NO)cc1	100 nM	–	–
CCC[C@@H](NCc1ccc(OCc2cccc(-c3ccccc3)c2C)nc1OC)C(=O)Nc1ccccc1N	97.5 nM	< 10%	–
COc1nc(-c2cccc(-c3ccccc3)c2C)ccc1Cn1ccc(C(=O)Nc2ccccc2N)c1	85.2 nM	–	–
COc1nc(OCc2cccc(-c3ccccc3)c2C)ccc1CNc1ccc(C(=O)Nc2ccccc2N)cc1	> 1000 nM	–	–
COc1nc(-c2cccc(-c3ccccc3)c2C)ccc1CNCCCCCC(=O)NO	69.4 nM	–	IC50 (Jurkat): > 10000 nM; IC50 (Histone deacetylase 7): > 100000 nM; IC50 (B16-F10): > 10000 nM; IC50 (HepG2): > 10000 nM; IC50 (MCF7): > 10000 nM
COc1nc(-c2cccc(-c3ccccc3)c2C)ccc1CN1CCC(C(=O)Nc2ccccc2N)CC1	100 nM	< 10%	–

Structure (SMILES)	IC50 [1]	inhibition [2]	other results
COc1nc(OCc2cccc(-c3ccccc3)c2C)ccc1CNCCCC(=O)NO	> 1000 nM	–	–
COc1nc(OCc2cccc(-c3ccccc3)c2C)ccc1CNCCCCCC(=O)Nc1ccccc1N	96.3 nM	–	–
COc1nc(-c2cccc(-c3ccccc3)c2C)ccc1CNCCCC(=O)NO	20.8 nM	–	IC50 (Histone deacetylase 8): > 10000 nM; IC50 (Histone deacetylase 7): > 100000 nM
COc1nc(-c2cccc(-c3ccccc3)c2C)ccc1CNc1ccc(C(=O)Nc2ccccc2N)s1	100 nM	< 10%	–
COc1nc(-c2cccc(-c3ccccc3)c2C)ccc1CNCCC(=O)NO	67.6 nM	–	–
COc1nc(-c2cccc(-c3ccccc3)c2C)ccc1CNc1cccc(C(=O)Nc2ccccc2N)c1	> 1000 nM	< 10%	–
COc1nc(-c2cccc(-c3ccccc3)c2C)ccc1CNc1ccc(C(=O)NO)s1	100 nM	–	–
COc1nc(OCc2cccc(-c3ccccc3)c2C)ccc1CNCCCCCC(=O)NO	68.3 nM	–	–
COc1nc(-c2cccc(-c3ccccc3)c2C)ccc1CNC1CCC(C(=O)Nc2ccccc2N)CC1 (stereo not drawn)	> 1000 nM	< 13.5%	–
COc1nc(-c2cccc(-c3ccccc3)c2C)ccc1CNCCCC(=O)Nc1ccccc1N	83.7 nM	–	IC50 (Jurkat): 7570 nM; IC50 (B16-F10): 9820 nM; IC50 (HepG2): > 10000 nM; IC50 (MCF7): > 10000 nM
Nc1ccccc1NC(=O)c1ccc(CNC(=O)OCc2cccnc2)cc1	–	< 10%	–
COc1nc(-c2cccc(-c3ccccc3)c2C)ccc1CNCCCCC(=O)Nc1ccccc1N	100 nM	–	–
COc1nc(-c2cccc(-c3ccccc3)c2C)ccc1CNCCCCCCC(=O)Nc1ccccc1N	100 nM	–	–
COc1nc(-c2cccc(-c3ccccc3)c2C)ccc1CNc1ccc2cc(C(=O)Nc3ccccc3N)ccc2c1	> 1000 nM	–	–
COc1nc(OCc2cccc(-c3ccccc3)c2C)ccc1CN1CCCC1C(=O)Nc1ccccc1N (stereo not drawn)	> 1000 nM	–	–
COc1nc(-c2cccc(-c3ccccc3)c2C)ccc1CNCC(=O)NO	16.3 nM	–	IC50 (Histone deacetylase 8): > 10000 nM; IC50 (Jurkat): 9000 nM; IC50 (Histone deacetylase 7): 10000 nM; IC50 (B16-F10): 8500 nM; IC50 (HepG2): > 10000 nM; IC50 (MCF7): > 10000 nM
COc1nc(OCc2cccc(-c3ccccc3)c2C)ccc1CNCCCCCCC(=O)Nc1ccccc1N	83.6 nM	–	–
COc1nc(OCc2cccc(-c3ccccc3)c2C)ccc1CNc1cccc(C(=O)NO)c1	100 nM	–	–
COc1nc(OCc2cccc(-c3ccccc3)c2C)ccc1CNC(C)(C)C(=O)NO	> 1000 nM	< 10%	–
COc1nc(OCc2cccc(-c3ccccc3)c2C)ccc1CNc1cc(C(=O)NO)c[nH]1	87.6 nM	–	–
COc1nc(-c2cccc(-c3ccccc3)c2C)ccc1CNCCCCCC(=O)Nc1ccccc1N	88 nM	–	–
